Measured values published in ChEMBL document CHEMBL3399970, “Synthesis of novel pleuromutilin derivatives. Part 1: preliminary studies of antituberculosis activity” (2015).
Converted amounts (≈) assume the structure as drawn.

What follows are molecules tested on Mycobacterium tuberculosis (assay: Antimycobacterial activity against Mycobacterium tuberculosis H37Rv assessed as inhibition at 20 uM).
Format: functional
For `C=C[C@]1(C)C[C@@H](OC(=O)CN(CC)Cc2ccccc2)[C@]2(C)[C@H](C)CC[C@]3(CCC(=O)[C@H]32)[C@@H](C)[C@@H]1O`, the inhibition at 20 µM was 100%. `C=C[C@]1(C)C[C@@H](OC(=O)CN(CC)Cc2cccc(Cl)c2)[C@]2(C)[C@H](C)CC[C@]3(CCC(=O)[C@H]32)[C@@H](C)[C@@H]1O` gave an inhibition at 20 µM of 99%. With `C=C[C@]1(C)C[C@@H](OC(=O)CN(CC)Cc2cccc(C)c2)[C@]2(C)[C@H](C)CC[C@]3(CCC(=O)[C@H]32)[C@@H](C)[C@@H]1O` the inhibition at 20 µM was 16%. With `C=C[C@]1(C)C[C@@H](OC(=O)CN(CC)Cc2ccc(N(CC)CC)cc2)[C@]2(C)[C@H](C)CC[C@]3(CCC(=O)[C@H]32)[C@@H](C)[C@@H]1O` the inhibition at 20 µM was 99%. `C=C[C@]1(C)C[C@@H](OC(=O)CN(CC)Cc2ccc(Oc3ccccc3)cc2)[C@]2(C)[C@H](C)CC[C@]3(CCC(=O)[C@H]32)[C@@H](C)[C@@H]1O` gave an inhibition at 20 µM of 100%. With `C=C[C@]1(C)C[C@@H](OC(=O)CN(Cc2ccccc2)Cc2ccc(Oc3ccccc3)cc2)[C@]2(C)[C@H](C)CC[C@]3(CCC(=O)[C@H]32)[C@@H](C)[C@@H]1O` the inhibition at 20 µM was 101%. For `C=C[C@]1(C)C[C@@H](OC(=O)CN(Cc2ccc(Oc3ccccc3)cc2)C2CCCCC2)[C@]2(C)[C@H](C)CC[C@]3(CCC(=O)[C@H]32)[C@@H](C)[C@@H]1O`, the inhibition at 20 µM was 88%. Molecule `C=C[C@]1(C)C[C@@H](OC(=O)CN(N2CCCCC2)S(=O)(=O)c2ccc(N)cc2)[C@]2(C)[C@H](C)CC[C@]3(CCC(=O)[C@H]32)[C@@H](C)[C@@H]1O` has an inhibition at 20 µM of 60%.

These molecules were tested on Mycobacterium tuberculosis (assay: Antimycobacterial activity against Mycobacterium tuberculosis H37Rv assessed as complete inhibition of proliferation).
Format: functional
In the case of `C=C[C@]1(C)C[C@@H](OC(=O)CN(CC)Cc2ccc(N(CC)CC)cc2)[C@]2(C)[C@H](C)CC[C@]3(CCC(=O)[C@H]32)[C@@H](C)[C@@H]1O`, the MIC is reported as 7.2 µM (≈ 4.08 µg/mL).
